# Results as given in publication PMC8377175, “Antidiabetic effect of bio-enhanced preparation of turmeric in streptozotocin-nicotinamide induced type 2 diabetic Wistar rats” (Journal of Ayurveda and Integrative Medicine, 2021).
# Marks after values point to notes of the source that are not given here.
# Columns and labels:
# [1] = tested on: streptozotocin-nicotinamide induced type 2 diabetic Wistar rats; assay: Fasting blood glucose and oral glucose tolerance test in STZ-NA diabetic rats; format: in vivo; settings: mean ± SD; for OG1 (OGTT 60 min), Day 29 Readings (after treatment) / OG2 (OGTT 120 min), Day 29 Readings (after treatment) / OG1 (OGTT 60 min), Day 1 Readings (baseline) / OG2 (OGTT 120 min), Day 1 Readings (baseline): glucose 2 g/kg; for OG1 (OGTT 60 min), Day 29 Readings (after treatment) / OG2 (OGTT 120 min), Day 29 Readings (after treatment) / FBG, Day 29 Readings (after treatment) / FBG, Day 1 Readings (baseline) / OG1 (OGTT 60 min), Day 1 Readings (baseline) / OG2 (OGTT 120 min), Day 1 Readings (baseline): n = 6; for FBG, Day 1 Readings (baseline): Day 1 baseline (4th day after induction); for OG1 (OGTT 60 min), Day 1 Readings (baseline) / OG2 (OGTT 120 min), Day 1 Readings (baseline): Day 1 baseline; for Day 30 FBG: 30 days
# Procedure: This study was done at the Department of Pharmacology, Kasturba Medical College, […] Academy of Higher Education, […]. The diabetic model that we have used in this study was STZ-NA model. DM was induced in male Wistar rats by giving NA and STZ injections, intraperitoneally. […] Citrate buffer (0.1 M), which has been used as solvent for mixing STZ, was made by dissolving solution of trisodium citrate (294.10 mg in 100 mL of distilled water) with citric acid solution (210.10 mg in 100 mL of distilled water) to attain pH 4.5. Ice was kept around the glass beaker containing Citrate buffer to maintain citrate buffer at lower temperatures. Normal control rats were administered with Citrate buffer alone intraperitoneally. […] Wistar rats were divided into seven groups, each group had six rats. Treatment for all the groups was started on the 4th day after diabetes induction procedure. The same was considered as Day 1 for treatment and continued for 30 days. The animals were treated for 30 days. The treatment schedule of various groups were as follows: Normal control (NC) (1 mL of 1% Tween 80, per oral), Diabetic control (DC) (1 mL of 1% Tween 80, per oral), two Standard control groups were treated with GLIB (5 mg/kg, per oral) and MET (500 mg/kg, per oral), two test groups were treated with bio-BTE (30 mg/kg, per oral and 60 mg/kg, per oral) and one test group was treated with RTE (30 mg/kg, per oral). The vehicle used for the study in all the groups were 1% Tween 80. Oral feeding of drugs was done using steel oral gavage tube (16 G, 7.6 cm). During the treatment period, rats also received standard pelleted chow (VRK Nutritional solutions) and water ad libitum during treatment. […] FBG, OG1 and OG2 values were estimated from blood drops that were obtained from rat tail tip using Accu-Check Glucometer. […] These serum samples were stored at -80 °C before insulin levels were assayed using DRG Rat insulin ELISA Kit.
# [2] = tested on: streptozotocin-nicotinamide induced type 2 diabetic Wistar rats; assay: Fasting serum insulin (DRG Rat insulin ELISA Kit) in STZ-NA diabetic rats; format: in vivo; settings: 30 days, mean ± SD
# Procedure: Wistar rats were divided into seven groups, each group had six rats. Treatment for all the groups was started on the 4th day after diabetes induction procedure. The same was considered as Day 1 for treatment and continued for 30 days. The animals were treated for 30 days. The treatment schedule of various groups were as follows: Normal control (NC) (1 mL of 1% Tween 80, per oral), Diabetic control (DC) (1 mL of 1% Tween 80, per oral), two Standard control groups were treated with GLIB (5 mg/kg, per oral) and MET (500 mg/kg, per oral), two test groups were treated with bio-BTE (30 mg/kg, per oral and 60 mg/kg, per oral) and one test group was treated with RTE (30 mg/kg, per oral). The vehicle used for the study in all the groups were 1% Tween 80. Oral feeding of drugs was done using steel oral gavage tube (16 G, 7.6 cm). […]
# FBG was estimated in all rats before administration of STZ and NA and had FBG level less than 126 mg/dl. […] FBG values were measured at 0 min (before glucose administration) and OGTT readings (OG1 and OG2) were measured at 60 and 120 min after administration of glucose solution. […] On Day 30 of treatment, FBG was measured and after anaesthetizing rats with ether, blood was collected from overnight fasted rats using cardiac puncture into red-coloured procoagulant vacutainers and centrifuged at 3000 rpm for 7 min to obtain serum. […]
# [3] = tested on: streptozotocin-nicotinamide induced type 2 diabetic Wistar rats; assay: HOMA2 calculator: insulin resistance, insulin sensitivity, beta-cell function, and their correlation with serum insulin; format: in vivo; settings: 30 days, mean ± SD
# Procedure: FBG, OG1 and OG2 values were estimated from blood drops that were obtained from rat tail tip using Accu-Check Glucometer. […] These serum samples were stored at −80 °C before insulin levels were assayed using DRG Rat insulin ELISA Kit. […] One-way ANOVA followed by post hoc analysis with Tukey test was conducted to evaluate statistically significant differences in the study variables between treatment groups. Pearson two-tailed correlation analysis was used to evaluate the correlation between serum insulin and IR; serum insulin and %B; and serum insulin & %S. SPSS version 21.0 was used to conduct statistical analysis in this study.
# Body weight measurement = format: in vivo, Wistar rats; settings: for Body weight, Day 1: Day 1 of treatment (baseline), in g (unit assumed); for Body weight, Day 1 / Body weight, Day 30: mean ± SD; for Percentage change in body weight on Day 30 when compared to baseline, Gain (+)/Loss (−) / Body weight, Day 30: 30 days
# Procedure: Wistar rats were divided into seven groups, each group had six rats. Treatment for all the groups was started on the 4th day after diabetes induction procedure. The same was considered as Day 1 for treatment and continued for 30 days. The animals were treated for 30 days. The treatment schedule of various groups were as follows: Normal control (NC) (1 mL of 1% Tween 80, per oral), Diabetic control (DC) (1 mL of 1% Tween 80, per oral), two Standard control groups were treated with GLIB (5 mg/kg, per oral) and MET (500 mg/kg, per oral), two test groups were treated with bio-BTE (30 mg/kg, per oral and 60 mg/kg, per oral) and one test group was treated with RTE (30 mg/kg, per oral). The vehicle used for the study in all the groups were 1% Tween 80. Oral feeding of drugs was done using steel oral gavage tube (16 G, 7.6 cm). During the treatment period, rats also received standard pelleted chow (VRK Nutritional solutions) and water ad libitum during treatment.
# Body weight of the rats was measured before induction (on the day of induction), on Day 1 of treatment and also on Day 30 of treatment. Percentage change in body weight was calculated using the formula (BodyweightonDay30oftreatment−BodyweightonDay1oftreatment)/(BodyweightonDay1oftreatment)×100
smiles,measurement,setting,value
"COc1ccc(Cl)cc1C(=O)NCCc1ccc(S(=O)(=O)NC(=O)NC2CCCCC2)cc1 [GLIB, Glibenclamide]","OG1 (OGTT 60 min), Day 29 Readings (after treatment)",[1]; GLIB 5 mg/kg per oral daily,154.17 ± 76.55^b mg/dL
same,"OG2 (OGTT 120 min), Day 29 Readings (after treatment)",[1]; GLIB 5 mg/kg per oral daily,117.50 ± 16.21^b mg/dL
same,"FBG, Day 29 Readings (after treatment)",[1]; GLIB 5 mg/kg per oral daily,95.17 ± 27.97^b mg/dL
same,"FBG, Day 1 Readings (baseline)",[1]; GLIB 5 mg/kg per oral group,130.5 ± 5.43^a mg/dL
same,"OG1 (OGTT 60 min), Day 1 Readings (baseline)",[1]; GLIB 5 mg/kg per oral group,420.67 ± 21.71^a mg/dL
same,"OG2 (OGTT 120 min), Day 1 Readings (baseline)",[1]; GLIB 5 mg/kg per oral group,358.50 ± 34.65^a mg/dL
same,Day 30 FBG,[1]; GLIB 5 mg/kg per oral,96.67 ± 26.49^b mg/dL
same,Day 30 Serum Insulin,[2]; GLIB 5 mg/kg per oral,145.68 ± 41.06^abd pmol/L
same,Day 30 Beta cell function (%B),[3]; GLIB 5 mg/kg per oral,183.13 ± 68.69^b %
same,Day 30 Insulin Resistance (IR),[3]; GLIB 5 mg/kg per oral,2.70 ± 0.84^abd
same,Day 30 Insulin Sensitivity (%S),[3]; GLIB 5 mg/kg per oral,41.08 ± 16.03%
same,"Body weight, Day 1",Body weight measurement; GLIB 5 mg/kg per oral group,179.67 ± 3.08
same,"Percentage change in body weight on Day 30 when compared to baseline, Gain (+)/Loss (−)",Body weight measurement; GLIB 5 mg/kg per oral,+23%
same,"Body weight, Day 30",Body weight measurement; GLIB 5 mg/kg per oral,221 ± 8.07^abcd
"CN(C)C(=N)N=C(N)N [MET, Metformin]","OG1 (OGTT 60 min), Day 29 Readings (after treatment)",[1]; MET 500 mg/kg per oral daily,329.33 ± 12.91^abd mg/dL
same,"OG2 (OGTT 120 min), Day 29 Readings (after treatment)",[1]; MET 500 mg/kg per oral daily,203.67 ± 58.96^b mg/dL
same,"FBG, Day 29 Readings (after treatment)",[1]; MET 500 mg/kg per oral daily,144.83 ± 53.86^b mg/dL
same,"FBG, Day 1 Readings (baseline)",[1]; MET 500 mg/kg per oral group,128.33 ± 5.32^a mg/dL
same,"OG1 (OGTT 60 min), Day 1 Readings (baseline)",[1]; MET 500 mg/kg per oral group,421.67 ± 39.52^a mg/dL
same,"OG2 (OGTT 120 min), Day 1 Readings (baseline)",[1]; MET 500 mg/kg per oral group,301.50 ± 64.05^a mg/dL
same,Day 30 FBG,[1]; MET 500 mg/kg per oral,141.00 ± 52.33^abcd mg/dL
same,Day 30 Serum Insulin,[2]; MET 500 mg/kg per oral,35.63 ± 16.81^c pmol/L
same,Day 30 Beta cell function (%B),[3]; MET 500 mg/kg per oral,42.03 ± 37.09^acd %
same,Day 30 Insulin Resistance (IR),[3]; MET 500 mg/kg per oral,0.73 ± 0.31^bc
same,Day 30 Insulin Sensitivity (%S),[3]; MET 500 mg/kg per oral,160.70 ± 68.64^abcd %
same,"Body weight, Day 1",Body weight measurement; MET 500 mg/kg per oral group,183.67 ± 7.82
same,"Percentage change in body weight on Day 30 when compared to baseline, Gain (+)/Loss (−)",Body weight measurement; MET 500 mg/kg per oral,−12.07%
same,"Body weight, Day 30",Body weight measurement; MET 500 mg/kg per oral,161.5 ± 7.74^acd
